In brackets after ≈: the same amount, converted by molar mass.
Key:
[1] = Half life of compound; assay type: physicochemical
[2] = clinical; conditions: human
[3] = system: A549; test: Growth inhibition of human A549 cells by SRB assay; assay type: functional
[4] = system: SMMC-7721; test: cells; conditions: Homo sapiens, SMMC-7721, 72 h
Description: Antiproliferative activity against human SMMC-7721 cells assessed as reduction in cell viability measured for 72 hrs by MTT assay

[5] = Terminal half life in human plasma; assay type: ADME, cell-free; conditions: read-out: beta t1/2 (converted)
[6] = Elimination half life in human at 0.8 mg/kg, sc; assay type: ADME, organism-based; conditions: in vivo, read-out: LambdaZ (converted)
[7] = system: Penicillium chrysogenum; test: Antifungal activity against Penicillium chrysogenum assessed as diameter of zone of inhibition at 100 ug/ml by cup-plate agar diffusion method; assay type: functional; conditions: read-out: IZ
[8] = molecular target: T1, Acetylcholinesterase (Homo sapiens, UniProt P22303); test: Inhibition of AChE (unknown origin)
[9] = molecular target: Cholinesterase (Homo sapiens, UniProt P06276); test: Inhibition of BChE (unknown origin)
[10] = Terminal half life in human at 2.5 mg/kg, po; assay type: ADME, organism-based; conditions: in vivo, read-out: beta t1/2 (converted)
[11] = system: MCF7; test: Cytotoxicity against human MCF7 cells assessed as reduction in cell viability; assay type: functional, cell-based
[12] = system: HCT-116; test: Cytotoxicity against human HCT-116 cells assessed as reduction in cell growth incubated for 24 hrs by MTT assay; assay type: functional, cell-based; conditions: HCT-116, 24 h
[13] = system: HL-60; test: Cytotoxicity against human HL-60 cells assessed as reduction in cell growth incubated for 24 hrs by MTT assay; assay type: functional, cell-based; conditions: HL-60, 24 h
[14] = system: OVCAR-8; test: Cytotoxicity against human OVCAR-8 cells assessed as reduction in cell growth incubated for 24 hrs by MTT assay; assay type: functional, cell-based; conditions: OVCAR-8, 24 h
[15] = system: SF-295; test: Cytotoxicity against human SF-295 cells assessed as reduction in cell growth incubated for 24 hrs by MTT assay; assay type: functional, cell-based; conditions: SF-295, 24 h
[16] = Half life in human at 6 mg/kg; assay type: ADME, organism-based; conditions: in vivo
[17] = molecular target: T1, Acetylcholinesterase; test: Inhibition of AChE (unknown origin) using acetylthiocholine iodide as substrate by Ellman's spectrophotometric analysis
[18] = system: MIA PaCa-2; test: Cytotoxicity against human MIA PaCa-2 cells; assay type: functional, cell-based
[19] = Inhibition of EGFR2 (unknown origin); parameters: species or system Homo sapiens
[20] = Half life in human at 15 mg/kg, po; assay type: ADME, organism-based; conditions: in vivo
[21] = system: Staphylococcus aureus; test: Antimicrobial activity against Staphylococcus aureus assessed as reduction in cell growth by XTT assay; assay type: functional, organism-based
[22] = system: Streptococcus pneumoniae; test: Antimicrobial activity against Streptococcus pneumoniae assessed as reduction in cell growth by XTT assay; assay type: functional, organism-based
[23] = system: HepG2; test: Antiproliferative activity against human HepG2 cells assessed as reduction in cell growth measured for 96 hrs by Neutral red uptake assay; assay type: functional, cell-based; conditions: HepG2, 96 h
[24] = system: Staphylococcus aureus; test: Antibacterial activity against Staphylococcus aureus assessed as zone of inhibition at 100 ug/ml by cup-plate agar diffusion method; assay type: functional; conditions: read-out: IZ
[25] = system: Aspergillus niger; test: Antifungal activity against Aspergillus niger assessed as diameter of zone of inhibition at 100 ug/ml by cup-plate agar diffusion method; assay type: functional; conditions: read-out: IZ
[26] = system: Bacillus subtilis; test: Antibacterial activity against Bacillus subtilis ATCC 6633 assessed as zone of inhibition; assay type: functional
[27] = system: Salmonella paratyphi; test: […] activity against Salmonella enterica subsp. enterica serovar Paratyphi A assessed as zone of inhibition at 100 ug/ml by cup-plate agar diffusion method; assay type: functional; conditions: read-out: IZ
[28] = Half life in po dosed human plasma; assay type: ADME, organism-based
[29] = system: Escherichia coli; test: Antimicrobial activity against Escherichia coli assessed as diameter of zone of inhibition; assay type: functional
[30] = molecular target: Amine oxidase [flavin-containing] B (Homo sapiens, UniProt P27338); test: Inhibition of human recombinant MAO-B extracted from baculovirus infected in BTI-TN-5B1-4 insect cells incubated for 20 mins by Amplex Red reagent based fluorescence analysis; assay type: cell-based
[31] = system: Rattus norvegicus; test: Anti-inflammatory activity against carrageenan-induced paw edema in Albino rat assessed as inhibition of paw edema at 50 mg/kg, po relative to control; assay type: functional; parameters: scale not given: the % may be the effect or the level left
[32] = system: Rattus norvegicus; test: Anti-inflammatory activity against carrageenan-induced paw edema in Wistar rat assessed as inhibition of paw edema at 20 mg/kg, po by H and E staining based analysis relative to control; assay type: functional; parameters: scale not given: the % may be the effect or the level left
[33] = Half life in human at 0.7 mg/kg, po; conditions: in vivo
[34] = molecular target: Beta-secretase 1 (Homo sapiens, UniProt P56817); test: Inhibition of human recombinant BACE1 expressed in HEK293 cells by FRET assay; assay type: cell-based
[35] = Terminal half life in human; assay type: ADME; conditions: read-out: beta t1/2 (converted)
[36] = system: Streptococcus pneumoniae; test: Antimicrobial activity against Streptococcus pneumoniae assessed as diameter of zone of inhibition by agar diffusion method; assay type: functional
[37] = system: Bacillus subtilis; test: Antimicrobial activity against Bacillus subtilis assessed as diameter of zone of inhibition by agar diffusion method; assay type: functional

T1 sequence (P22303 whole entry): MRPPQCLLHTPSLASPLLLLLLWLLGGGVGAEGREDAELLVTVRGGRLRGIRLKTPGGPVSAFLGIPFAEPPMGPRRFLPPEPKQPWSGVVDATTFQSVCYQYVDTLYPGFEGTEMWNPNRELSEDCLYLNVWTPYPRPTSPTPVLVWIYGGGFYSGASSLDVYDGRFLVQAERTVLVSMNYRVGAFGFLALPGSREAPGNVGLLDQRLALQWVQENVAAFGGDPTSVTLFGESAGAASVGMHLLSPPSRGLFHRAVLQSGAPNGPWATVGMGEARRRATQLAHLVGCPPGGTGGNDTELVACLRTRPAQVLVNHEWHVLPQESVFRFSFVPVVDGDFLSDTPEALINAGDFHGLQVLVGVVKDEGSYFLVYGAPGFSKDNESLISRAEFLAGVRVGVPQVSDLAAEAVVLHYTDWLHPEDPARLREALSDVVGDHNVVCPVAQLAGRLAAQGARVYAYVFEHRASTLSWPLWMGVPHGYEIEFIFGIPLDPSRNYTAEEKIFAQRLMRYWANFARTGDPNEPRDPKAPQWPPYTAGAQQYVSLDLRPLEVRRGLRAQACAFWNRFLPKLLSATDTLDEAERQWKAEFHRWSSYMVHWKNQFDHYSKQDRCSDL
Beta-secretase 1, sequence (P56817 whole entry): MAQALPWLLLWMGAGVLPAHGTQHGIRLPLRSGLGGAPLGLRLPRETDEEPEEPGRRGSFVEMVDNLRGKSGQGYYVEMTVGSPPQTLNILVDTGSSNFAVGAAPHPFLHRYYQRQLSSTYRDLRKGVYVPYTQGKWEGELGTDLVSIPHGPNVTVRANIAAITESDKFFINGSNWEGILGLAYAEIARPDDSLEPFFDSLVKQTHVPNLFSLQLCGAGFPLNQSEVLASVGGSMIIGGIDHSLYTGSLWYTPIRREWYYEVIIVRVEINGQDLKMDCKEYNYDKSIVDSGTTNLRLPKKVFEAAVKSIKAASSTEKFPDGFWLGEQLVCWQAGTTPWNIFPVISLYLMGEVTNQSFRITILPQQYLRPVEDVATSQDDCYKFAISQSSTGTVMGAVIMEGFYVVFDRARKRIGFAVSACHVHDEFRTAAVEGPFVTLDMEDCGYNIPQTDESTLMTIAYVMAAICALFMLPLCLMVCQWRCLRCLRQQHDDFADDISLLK
Amine oxidase [flavin-containing] B, sequence (P27338 whole entry): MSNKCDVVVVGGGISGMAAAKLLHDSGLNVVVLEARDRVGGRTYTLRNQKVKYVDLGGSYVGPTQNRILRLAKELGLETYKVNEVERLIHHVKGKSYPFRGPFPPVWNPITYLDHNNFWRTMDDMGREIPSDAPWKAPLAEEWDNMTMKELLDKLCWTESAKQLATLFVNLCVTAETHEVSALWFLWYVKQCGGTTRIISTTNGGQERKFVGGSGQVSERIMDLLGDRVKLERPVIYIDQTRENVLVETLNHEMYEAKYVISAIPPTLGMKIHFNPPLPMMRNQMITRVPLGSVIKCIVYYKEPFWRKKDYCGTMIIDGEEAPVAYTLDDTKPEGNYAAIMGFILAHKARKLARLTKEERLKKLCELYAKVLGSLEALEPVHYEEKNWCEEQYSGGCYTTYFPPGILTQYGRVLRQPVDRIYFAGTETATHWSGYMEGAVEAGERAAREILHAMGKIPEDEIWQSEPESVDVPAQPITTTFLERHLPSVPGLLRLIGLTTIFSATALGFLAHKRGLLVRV
Cholinesterase, sequence (P06276 whole entry): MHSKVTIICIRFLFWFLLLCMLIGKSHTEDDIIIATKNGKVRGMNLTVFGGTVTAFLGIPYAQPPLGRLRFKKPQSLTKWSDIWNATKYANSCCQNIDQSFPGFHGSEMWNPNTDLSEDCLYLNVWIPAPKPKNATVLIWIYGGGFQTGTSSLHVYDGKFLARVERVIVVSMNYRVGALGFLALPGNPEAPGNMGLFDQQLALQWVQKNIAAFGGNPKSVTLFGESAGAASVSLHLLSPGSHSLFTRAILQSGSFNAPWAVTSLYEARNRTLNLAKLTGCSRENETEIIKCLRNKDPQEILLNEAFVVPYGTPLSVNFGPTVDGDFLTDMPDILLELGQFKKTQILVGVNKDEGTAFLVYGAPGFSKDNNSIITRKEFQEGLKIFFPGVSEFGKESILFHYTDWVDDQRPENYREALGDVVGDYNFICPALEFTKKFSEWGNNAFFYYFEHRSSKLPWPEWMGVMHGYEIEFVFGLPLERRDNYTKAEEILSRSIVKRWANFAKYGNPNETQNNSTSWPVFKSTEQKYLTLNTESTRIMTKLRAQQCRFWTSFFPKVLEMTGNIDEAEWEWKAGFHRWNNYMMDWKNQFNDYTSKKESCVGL

CCN[C@H]1C[C@H](C)S(=O)(=O)c2sc(S(N)(=O)=O)cc21 [DORZOLAMIDE]
t1/2 [1]: 4 months

Clc1ccccc1CN1CCc2sccc2C1 [TICLOPIDINE]
half-life [2]: 7.9 h

CCOC(=O)c1c(/N=C/c2ccc(Br)cc2)sc2c1CCCC2
GI50 [3]: 8040 nM

O=C(Nc1ccsc1C(=O)N/N=C/c1ccc(F)cc1)c1ccc(Cl)cc1Cl
IC50 [4]: 320 nM

CCCN(CCc1cccs1)[C@H]1CCc2c(O)cccc2C1 [ROTIGOTINE]
half-life [5]: 7 h

NC(N)=NCCC[C@@H](N)C(=O)N[C@@H](CCCN=C(N)N)C(=O)N1CCC[C@H]1C(=O)N1C[C@H](O)C[C@H]1C(=O)NCC(=O)N[C@@H](Cc1cccs1)C(=O)N[C@@H](CO)C(=O)N1Cc2ccccc2C[C@@H]1C(=O)N1[C@H](C(=O)N[C@@H](CCCN=C(N)N)C(=O)O)C[C@@H]2CCCC[C@@H]21 [ICATIBANT]
half-life [6]: 1.4 h

NC1=C(C(=O)Nn2c(=O)cc(-c3ccccc3)c3ccc(O)cc32)SCC1
zone of inhibition at 100 µg/mL [7]: 27 mm

O=C(NNC(=S)Nc1ccccc1[N+](=O)[O-])c1sccc1Cl
IC50 [8]: 400 nM | IC50 [9]: 1900 nM

CCCCc1ncc(/C=C(\Cc2cccs2)C(=O)O)n1Cc1ccc(C(=O)O)cc1 [EPROSARTAN]
half-life [10]: 5 h

O=C1S/C(=C\c2cccc(Cl)c2Cl)C(=O)N1Cc1nnc(-c2cccs2)o1
IC50 [11]: 4.83 µg/mL (≈ 11 µM)

COc1cccc(/C=N/NC(=O)c2cccs2)c1O
IC50 [12]: 820 nM | IC50 [13]: 820 nM | IC50 [14]: 820 nM | IC50 [15]: 820 nM

CCN[C@H]1CN(CCCOC)S(=O)(=O)c2sc(S(N)(=O)=O)cc21 [BRINZOLAMIDE]
half-life [16]: 111 h

FC(F)(F)c1cccc(-c2cc(-c3cccs3)n(-c3ccc(Br)cc3)n2)c1
IC50 [17]: 0.48 nM

CN1CCN(CC(=O)Nc2sc3c(c2C#N)CCC(C(C)(C)C)C3)CC1 (configuration not stated)
IC50 [18]: 13400 nM | IC50 [19]: 680 nM

Cc1cc2c(s1)Nc1ccccc1N=C2N1CCN(C)CC1 [OLANZAPINE]
half-life [20]: 21 h

CCOC(=O)c1c(Nc2ccccc2)sc(Cc2ccc(-n3cnnn3)cc2)c1N
IC50 [21]: 7.62 µg/mL (≈ 18.1 µM) | IC50 [22]: 9.83 µg/mL (≈ 23.4 µM)

COc1ccc(C2=NNC(=O)c3c(sc(C(N)=O)c3C)N2)cc1
IC50 [23]: 4.37 µg/mL (≈ 13.2 µM)

Cc1cc2ccc(O)cc2n(NC(=O)c2sc3cc(F)ccc3c2N)c1=O
zone of inhibition at 100 µg/mL [24]: 23 mm | zone of inhibition at 100 µg/mL [25]: 26 mm | inhibition zone (IZ) [26]: 25 mm | zone of inhibition at 100 µg/mL [27]: 22 mm

CN1CCC(=C2c3ccccc3CC(=O)c3sccc32)CC1 [KETOTIFEN]
half-life [28]: 3 h

NC(=S)N/N=C(\C=C\c1ccc(Cl)cc1Cl)c1cccs1
inhibition zone (IZ) [29]: 15 mm

O=c1oc2cc(O)ccc2cc1-c1cc(Br)cs1
IC50 [30]: 140 nM

CC(=O)c1c(Nc2ccc(C)cc2)sc(-c2nc3ccccc3c(=O)n2-c2ccc(Cl)cc2)c1C
Activity [31]: 58.6% | Activity [32]: 48.94%

COC(=O)[C@H](c1ccccc1Cl)N1CCc2sccc2C1 [CLOPIDOGREL]
half-life [33]: 6 h

COC(=O)c1cc(C)cc2sc3cccc(OC)c3c12
IC50 [34]: 600 nM

O=C(NC[C@H]1CN(c2ccc(N3CCOCC3=O)cc2)C(=O)O1)c1ccc(Cl)s1 [RIVAROXABAN]
half-life [35]: 5 h

CCOC(=O)c1c(Nc2ccccc2)sc(C2=CN3NCC=C3N2)c1-c1ccccc1
inhibition zone (IZ) [36]: 12.3 mm | inhibition zone (IZ) [37]: 12.7 mm
